We go through one compound from patent EP1200406B1, “CYCLIC AMIDES AND IMIDES HAVING SELECTIVE ANTAGONIST ACTIVITY AT ALPHA-1D ADRENERGIC RECEPTOR” (RECORDATI INDUSTRIA CHIMICA E FARMACEUTICA S.p.a., priority 1999, dated 2001).

Assay [1] addresses T1, human recombinant α1b adrenoceptor (Homo sapiens, UniProt P35368).
T1 construct: expressed in transfected cells; host or cells: CHO cells (membranes)
T1 sequence (P35368 1-520): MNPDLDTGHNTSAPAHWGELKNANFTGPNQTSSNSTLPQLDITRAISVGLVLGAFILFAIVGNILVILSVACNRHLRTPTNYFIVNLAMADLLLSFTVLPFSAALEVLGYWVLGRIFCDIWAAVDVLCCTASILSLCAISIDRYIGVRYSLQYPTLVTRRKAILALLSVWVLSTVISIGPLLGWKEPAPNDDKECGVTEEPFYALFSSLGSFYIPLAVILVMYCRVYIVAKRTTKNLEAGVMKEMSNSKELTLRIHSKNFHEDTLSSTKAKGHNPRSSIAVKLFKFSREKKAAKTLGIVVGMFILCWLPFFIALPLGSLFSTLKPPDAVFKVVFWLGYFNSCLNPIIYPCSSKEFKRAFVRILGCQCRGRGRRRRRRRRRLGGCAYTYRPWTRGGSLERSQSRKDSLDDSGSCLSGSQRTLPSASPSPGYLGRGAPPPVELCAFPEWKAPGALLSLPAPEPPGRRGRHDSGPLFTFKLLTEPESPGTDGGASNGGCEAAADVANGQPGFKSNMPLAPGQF
The experiment in a line: Radioligand binding ([3H]prazosin) on membranes of CHO cells expressing cloned α1b adrenoceptor. The following applies: human cloned receptor, CHO cell membranes, 0.2 nM [3H]prazosin; read-out: Affinity (Ki) α1b. How it is done:
(§1) The determination of affinity for cloned subtypes of human α1 adrenergic receptors was performed in membranes from CHO cells (chinese hamster ovary cells) transfected by electroporation with DNA expressing the genes encoding each α1-adrenoceptor subtype, namely α1a, α1b and α1d.. Cloning and stable expression of the human α1-adrenoceptor gene were performed as previously described (Testa et al., Pharmacol. Comm. 6, 79-86 (1995)). CHO cell membranes were incubated in […] Tris pH 7.4 with 0.2 nM [^3H]prazosin, in a final volume of 1.02 ml for 30 minutes at 25°C, in the absence or presence of competing drugs (1 pM-10 µM). Non-specific binding was determined in the presence of 10 µM phentolamine. Incubation was stopped by addition of ice-cold Tris buffer and rapid filtration through 0.2% polyethyleneimine pretreated Schleicher & Schuell GF52 filters. Genomic clone G-21 coding for the human 5-HT1A-serotoninergic receptor was stably transfected in a human cell line (HeLa) (Fargin et al., J. Biol. Chem. 284, 14848-14852 (1989)). The HeLa cells were grown as monolayers in Dulbecco's modified Eagle's medium (DMEM), supplemented with 10% foetal calf serum and gentamicin (100 µg/ml), 5% CO2, at 37°C. The cells were detached from the growth flask at 95% confluence by a cell scraper and were lysed in ice-cold 5 mM Tris and 5-mM EDTA buffer (pH 7.4). The homogenates were centrifuged at 40000 x g x 20 minutes and the membranes were re-suspended in a small volume of ice-cold 5 mM Tris and 5-mM EDTA buffer (pH 7.4) and immediately frozen and stored at -70°C until use. On the experiment day, the cell membranes were re-suspended in a buffer containing 50 mM Tris (pH 7.4), 2.5 mM MgCl2, 10 µM pargyline (Fargin et al., Nature 335, 358-360 (1988)). […] The incubation was stopped by addition of ice-cold Tris buffer and rapid filtration through 0.2%-polyethyleneimine-pretreated Schleicher & Schuell filters. The inhibition of specific binding of the radioligands by the drugs was analysed to estimate the IC50 value by using the non-linear curve-fitting programme Allfit (De Lean et al., Am. J. Physiol. 235, E97-E102 (1978)). The IC50 value was converted to an affinity constant (Ki) by the equation of Cheng & Prusoff (Biochem. Pharmacol. 22, 3099-3108 (1973)). Data were expressed as mean of Ki.

The next assay addresses T2, Guinea pig spleen α1B (Cavia porcellus, UniProt H0WBQ9).
T2 construct: from tissue; host or cells: guinea pig spleen, longitudinal strips
T2 sequence (H0WBQ9 1-520): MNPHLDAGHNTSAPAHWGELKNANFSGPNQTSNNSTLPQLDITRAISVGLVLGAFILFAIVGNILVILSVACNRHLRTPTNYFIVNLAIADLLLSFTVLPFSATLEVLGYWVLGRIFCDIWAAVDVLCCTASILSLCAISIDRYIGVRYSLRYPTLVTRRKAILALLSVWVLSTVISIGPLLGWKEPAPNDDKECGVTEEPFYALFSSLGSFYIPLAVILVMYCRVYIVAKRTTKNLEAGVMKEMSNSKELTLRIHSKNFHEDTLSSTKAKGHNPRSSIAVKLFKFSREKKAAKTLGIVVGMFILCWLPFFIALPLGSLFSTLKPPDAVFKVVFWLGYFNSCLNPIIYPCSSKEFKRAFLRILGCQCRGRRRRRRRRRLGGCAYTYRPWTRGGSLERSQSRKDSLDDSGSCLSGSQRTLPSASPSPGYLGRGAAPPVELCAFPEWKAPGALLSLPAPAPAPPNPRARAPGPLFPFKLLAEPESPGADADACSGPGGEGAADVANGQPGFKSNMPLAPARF
The conditions noted are these: footnote a: Eltze M., Eur. J. Pharmacol. 260, 211-220 (1994); cited from earlier work.

Assay [2] addresses T3, human 5-HT1A-serotoninergic receptor (Homo sapiens, UniProt P08908).
T3 construct: expressed in transfected cells; host or cells: HeLa cells (membranes)
T3 sequence (P08908 1-422): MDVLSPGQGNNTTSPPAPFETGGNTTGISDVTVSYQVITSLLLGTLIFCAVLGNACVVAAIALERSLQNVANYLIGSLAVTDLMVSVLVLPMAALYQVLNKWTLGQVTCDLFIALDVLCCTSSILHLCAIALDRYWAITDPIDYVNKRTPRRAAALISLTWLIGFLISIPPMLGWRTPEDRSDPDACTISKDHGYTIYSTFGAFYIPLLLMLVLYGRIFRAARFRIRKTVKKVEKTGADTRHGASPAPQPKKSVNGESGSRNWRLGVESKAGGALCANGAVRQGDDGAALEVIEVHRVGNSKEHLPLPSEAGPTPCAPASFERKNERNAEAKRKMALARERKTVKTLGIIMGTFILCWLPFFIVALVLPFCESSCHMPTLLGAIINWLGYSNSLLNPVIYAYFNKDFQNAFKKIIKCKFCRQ
Briefly: Radioligand binding ([3H]8-OH-DPAT) on membranes of HeLa cells expressing cloned 5-HT1A receptor. The following applies: human cloned receptor, HeLa cell membranes, 1.2 nM [3H]8-OH-DPAT; read-out: Affinity (Ki) 5-HT1A. How it is done: as §1

The Ki is a measure of affinity in units of concentration, obtained from inhibition or displacement. Turning to `COc1ccccc1N1CCN(CCN2C(=O)CC3(CCCC3)CC2=O)CC1` [BMY-7378, reference compound], the values for the Ki in assay [1] and in assay [2] were 69 nM and 0.93 nM, respectively. Besides, the “Functional affinity pKB, Guinea pig spleen α1B” value at Guinea pig spleen α1B is given as 6.55^a.
